Measured values: US20240247048A1 (EMORY UNIVERSITY, priority 2021, published 2024)

Tested on: tumor infiltrating T cells in KPC-Luc tumors
Experiment: analysis of tumor infiltrating T cells in subcutaneous KPC-Luc tumors (flow cytometry, Nanostring, TCR sequencing, tetramer)
Format: in vivo, mouse
Protocol: FIGS. 19A, 19B, 19C, 19D, 19E, 19F, 19G, 19H and 19I show increased T cell activation and reduced frequency of Tregs in KPC.Luc tumors treated with a combination of VIP-R antagonist and anti-PD-1. Subcutaneous KPC.Luc tumors in C57BL/6 mice treated with ANT008 and/or anti-PD-1 (n=5 per treatment group), were analyzed via flow cytometry 10 days after treatment for proportion of (FIG. 19A) CD4+ and (FIG. 19B) CD8+ T cells expressing Ki67, IFN gamma, IL-4, PD-1 and Tim-3. (FIG. 19C) Representative flow plots showing the gating strategy used to quantify CD25+FoxP3+ Tregs. (FIG. 19D) Percentage of Tregs in tumors of the different treatment groups (n=5 per treatment group). Volcano plot showing differential expression of genes in T cells from (FIG. 19E) ANT008+ isotype IgG (IgG) vs scrambled peptide (Scram)+ isotype IgG, (FIG. 19F) scrambled peptide+anti-PD-1 vs scrambled peptide+isotype IgG and (FIG. 19G) ANT008+anti-PD-1 vs scrambled peptide+isotype IgG (n=3 mice per treatment group). Horizontal black line represents false discovery rate (FDR)<0.1. […] (FIG. 19H) Heat map showing gene expression changes in genes associated with TCR activation and co-stimulation. (FIG. 19I) TCR activation and co-stimulation pathway score between the T cells in tumors of mice from the different treatment groups. Statistical differences in FIGS. 19A, 19B, 19D and 19I were calculated via ANOVA followed by Dunnett's post-test. Error bars show mean±SEM *p<0.05, **p<0.001, ***p<0.0001.
(FIG. 20A) Box and whiskers plot showing Shannon's Entropy in T cells of KPC.Luc tumors in each treatment group. (FIG. 20B) List showing TCR-0 amino acid sequences shared between samples of each treatment group and (FIG. 20C) the frequencies of the shared clones in each treatment group. Sequences are color coded to represent number of mice per group (n=4) that share the specific TCR-β clone. CD8+ in subcutaneous KPC.Luc tumors were stained with MuLV p15E-H2Kb tetramer after 10 days of treatment with ANT308 and/or anti-PD-1 (n=3 per treatment group) using the (FIG. 20D) gating strategy and (FIG. 20E) quantified. […] Statistical differences in a and e were calculated via ANOVA followed by Dunnett's post-test and in FIG. 20F and FIG. 20G were calculated using Log-rank test. […]
Increased T cell activation in tumors of mice treated with a combination of VIP-R antagonist and anti-PD-1. To investigate whether inhibiting VIP-R signaling promotes T cell activation in vivo, the study analyzed tumor infiltrating T cells in subcutaneous KPC-Luc tumors for differences in activation markers. […]

## KPRRPYTDNYTRLRKQMAVKKYLNLILN [ANT008]
>4-fold change, FDR<0.1, FIG. 19e-19g
  genes upregulated in TIL (Nanostring): no genes significantly upregulated
FIG. 19c, 19d
  frequency of Tregs within the PDAC tumors: significantly decreased
monotherapy, 10 days after treatment, FIG. 19a, 19b
  levels of PD-1+ Tim-3- T cells in CD4+ and CD8+ subsets: increased
n=4 per group, FIG. 20b
  number of clones shared by at least 2 samples among top 50 highest frequency TCR clones: 6
